Where a name gives a salt, the structure may show the parent alone.
Tests used:
[1] = system: patients with myofascial pain syndrome (MPS); details: bupivacaine 0.25%, lignocaine 1%, local injection, 107 patients; cited from earlier work
[2] = system: patients with orofacial muscle (myofascial) pain, masseter muscle tender points; test: VAS pain at rest (jaw at rest) after intramuscular tender point injection; format: in vivo, human
Procedure: (§1) Ropivacaine hydrochloride 7.5 mg/ml solution for injection was used (Naropin®, Astra AB, Sweden). Ropivacaine was administered as a single dose intra-muscular tender point (TP) injection. Injection by means of one needle insertion per tender point was preceded by aspiration before infiltrating the study drug over the entire tender area. A standard disposable syringe with a 0.4 mm diameter needle was used. Injection rate was about 1 ml/30 sec. Injections were made at one occassion at a visit to the clinic. Follow-up data were obtained at a study end visit to the clinic 1 week after the injection. Ten patients (5 men and 5 women) whose age varied from 19 years to 69 years (mean 42.9 years of age) were included in this test. The duration of complaints ranged from 1 month up to 10 years (mean 26.5 months). All patients were subjected to unilateral injections of ropivacaine into tender points of the masseter muscle. Three patients received 1 ml, 5 patients received 2 ml, 1 patient received 3 ml and 1 patient received 4 ml of the study drug. (ii) Pain at rest The non-functional pain (jaw at rest) was also assessed by the patient on the VAS scale. This parameter was rated before the rating of pain on maximal mouth opening.

[3] = system: patients with orofacial muscle (myofascial) pain, masseter muscle tender points; test: VAS pain at maximal mouth opening after intramuscular tender point injection; format: in vivo, human
Procedure: Ropivacaine hydrochloride 7.5 mg/ml solution for injection was used (Naropin®, Astra AB, Sweden). Ropivacaine was administered as a single dose intra-muscular tender point (TP) injection. Injection by means of one needle insertion per tender point was preceded by aspiration before infiltrating the study drug over the entire tender area. A standard disposable syringe with a 0.4 mm diameter needle was used. Injection rate was about 1 ml/30 sec. Injections were made at one occassion at a visit to the clinic. Follow-up data were obtained at a study end visit to the clinic 1 week after the injection. Ten patients (5 men and 5 women) whose age varied from 19 years to 69 years (mean 42.9 years of age) were included in this test. The duration of complaints ranged from 1 month up to 10 years (mean 26.5 months). All patients were subjected to unilateral injections of ropivacaine into tender points of the masseter muscle. Three patients received 1 ml, 5 patients received 2 ml, 1 patient received 3 ml and 1 patient received 4 ml of the study drug. (i) Pain on maximal mouth opening The patient rated their pain on a 100 mm visual analogue scale (VAS). On the VAS, 0 represents “no pain” and 100 represents “worst pain imaginable”. The primary efficacy variable was VAS pain score at maximal mouth opening. The patient was asked to open the mouth as much as possible and then they rated the experienced pain.

[4] = system: patients with orofacial muscle (myofascial) pain, masseter muscle tender points; test: Frequency of pain episodes / freedom from muscular pain at follow-up; format: in vivo, human
Procedure: as §1, with “the injection. A case history information including the duration of the present orofacial muscle pain was collected. A clinical examination of the orofacial region including digital palpation of the temporomandibular joints and masticatory muscles. Ten patients” for “the injection. Ten patients”, “study drug.” for “study drug. (ii) Pain at rest The non-functional pain (jaw at rest) was also assessed by the patient on the VAS scale. This parameter was rated before the rating of pain on maximal mouth opening.”

CCN(CC)CC(=O)Nc1c(C)cccc1C [lignocaine]
Effect on pain compared between bupivacaine, lignocaine and saline [1]: No significant difference

CCCN1CCCC[C@H]1C(=O)Nc1c(C)cccc1C [ropivacaine, (S)-(−)-i-propyl-2′,6′-pipecoloxylidide hydrochloride]
Pain at rest, 100 mm VAS, Follow-up, Max ([2]; 10 patients, 7.5 mg/ml single i.m. injection, follow-up 1 week, baseline max 89): 16 mm
Pain at rest, 100 mm VAS, Follow-up, Mean ([2]; 10 patients, 7.5 mg/ml single i.m. injection, follow-up 1 week, baseline mean 33.3): 3.7 mm
Pain at rest, 100 mm VAS, Follow-up, Median ([2]; 10 patients, 7.5 mg/ml single i.m. injection, follow-up 1 week, baseline median 19.5): 3.5 mm
Pain at rest, 100 mm VAS, Follow-up, Min ([2]; 10 patients, 7.5 mg/ml single i.m. injection, follow-up 1 week, baseline min 3): 0 mm
Pain at rest, change as the result of the treatment ([2]; baseline vs follow-up, result in words): decreased significantly
Pain at maximal jaw opening, 100 mm VAS, Follow-up, Max ([3]; 10 patients, 7.5 mg/ml single i.m. injection, follow-up 1 week, baseline max 95): 75 mm
Pain at maximal jaw opening, 100 mm VAS, Follow-up, Mean ([3]; 10 patients, 7.5 mg/ml single i.m. injection, follow-up 1 week, baseline mean 59.3, S.D. 32.34): 27.3 mm
Pain at maximal jaw opening, 100 mm VAS, Follow-up, Min ([3]; 10 patients, 7.5 mg/ml single i.m. injection, follow-up 1 week, baseline min 8): 0 mm
Pain at maximal jaw opening, 100 mm VAS, Follow-up, Median ([3]; 10 patients, 7.5 mg/ml single i.m. tender point injection (1-4 ml), follow-up 1 week, baseline median 59.5): 6 mm
VAS rated pain at maximal mouth opening, change as a result of the treatment ([3]; baseline vs follow-up 1 week, result in words): dramatic reduction
Patients who became free or almost free of their muscular pain ([4]; FIG. 1, 10 patients treated): 6 out of the 10
Patients with pain at one occasion during the week prior to follow-up ([4]; of 10 patients): 1 patient
Patients with pain several times a week or every day at follow-up ([4]; of 10 patients): 3 patients
Patients with not a single episode with pain during the week prior to follow-up ([4]; of 10 patients, at baseline 2 had pain every day, 8 several times per week): 6 patients

CCCCN1CCCCC1C(=O)Nc1c(C)cccc1C (stereo not shown) [bupivacaine]
Effect on pain compared between bupivacaine, lignocaine and saline [1]: No significant difference
